Data set [1] has as its system Mycobacterium tuberculosis. Put plainly: Antimycobacterial activity against Mycobacterium tuberculosis H37Rv ATCC 27294 at 6.25 ug/mL by BACTEC 460 radiometric assay. The data set is classed as functional.
Data set [2] deals with Mycobacterium tuberculosis. Put plainly: Antimycobacterial activity against Mycobacterium tuberculosis H37Rv ATCC 27294. The data set is classed as functional.
Data set [3] can be described thus: Cytotoxicity against mouse macrophage cells assessed as cell viability at 10 ug/100 ul after 24 hrs by MTT assay. In kind it is cell-based. The note with it: read-out: Activity. (In general: Tetrazolium dyes change colour on reduction, which living cells bring about.)
Data set [4] in a line: Cytotoxicity against mouse macrophage cells assessed as cell viability at 10 ug/100 ul after 72 hrs by MTT assay. The data set is classed as cell-based. Conditions: read-out: Activity.
A short description of data set [5]: Cytotoxicity against mouse macrophage cells assessed as cell viability at 1 ug/100 ul after 24 hrs by MTT assay. In kind it is cell-based. Conditions: read-out: Activity.
A short description of data set [6]: Cytotoxicity against mouse macrophage cells assessed as cell viability at 1 ug/100 ul after 72 hrs by MTT assay. The data set is classed as cell-based. Conditions: read-out: Activity.

≈ marks a conversion by molar mass, not a printed value.

Usually inhibition stands for how much of the control response was suppressed. `CC(c1cc(F)ccc1Oc1nc2ccc(-n3cc(-c4ccccc4)nn3)cc2cc1Cc1ccccc1)N1CCN(c2ccc(F)cc2)CC1` (stereo not given) gave an inhibition at 6.25 µg/mL in data set [1] of 20%.
Same read-out and setting: the result for `O=[N+]([O-])c1ccc2nc(Oc3ccc(F)cc3C(O)Cn3ccnc3)c(Cc3ccccc3)cc2c1` (stereo not given) reads 58%; that for `O=[N+]([O-])c1ccc2nc(Oc3ccc(F)cc3C(O)Cn3cccn3)c(Cc3ccccc3)cc2c1` (stereo not given), 53%.
Still for that read-out and setting: the result for `COc1ccc(NC(=S)Nc2ccc3nc(Oc4ccc(F)cc4C(C)O)c(Cc4ccccc4)cc3c2)cc1` (stereo not given) reads 27%.
Same read-out and setting: the same measure for `CC(c1cc(F)ccc1Oc1nc2ccc(-n3cc(-c4ccccc4)nn3)cc2cc1Cc1ccccc1)N1CCN(c2ccccn2)CC1` (stereo not given): 29%.
In data set [1], `COc1ccc(NC(=O)Nc2ccc3nc(Oc4ccc(F)cc4C(C)O)c(Cc4ccccc4)cc3c2)cc1` (stereo not given) had an inhibition at 6.25 µg/mL of 25%.
The same measure, in the same setting: the same measure for `COc1cccc(-c2ccn(CC(O)c3cc(F)ccc3Oc3nc4ccc([N+](=O)[O-])cc4cc3Cc3ccccc3)n2)c1` (stereo not given): 7%; for `CC(O)c1cc(F)ccc1Oc1nc2ccc(NC(=S)NCc3ccc(Cl)cc3)cc2cc1Cc1ccccc1` (stereo not given): 37%.
The MIC is the smallest concentration in the dilution series that meets the test's criterion for growth inhibition. Low values mean inhibition by little substance, high ones a need for much substance. For the molecule `CC(O)c1cc(F)ccc1Oc1nc2ccc(NC(=O)Nc3cccc([N+](=O)[O-])c3)cc2cc1Cc1ccccc1` (stereo not given), the inhibition at 6.25 µg/mL in data set [1] turned out to be 98%. Also, it took 6.25 µg/mL (≈ 11.3 µM) to inhibit growth in data set [2] (MIC). Moreover, the viability at 24 h, 10 ug/100 ul in data set [3] came out at 87%. Moreover, in data set [4], the viability at 72 h, 10 ug/100 ul came to 53%. In data set [5], the viability at 24 h, 1 ug/100 ul was determined as 91%. Moreover, in data set [6], the viability at 72 h, 1 ug/100 ul is 55%.
In data set [1], `O=[N+]([O-])c1ccc2nc(Oc3ccc(F)cc3C(O)CN3CCOCC3)c(Cc3ccccc3)cc2c1` (stereo not given) came in with an inhibition at 6.25 µg/mL of 29%.
The same measure, in the same setting: the result for `O=[N+]([O-])c1ccc2nc(Oc3ccc(F)cc3C(O)CN3CCNCC3)c(Cc3ccccc3)cc2c1` (stereo not given) reads 20%; that for `COc1ccc(-c2ccn(CC(O)c3cc(F)ccc3Oc3nc4ccc([N+](=O)[O-])cc4cc3Cc3ccccc3)n2)cc1` (stereo not given), 5%.
In turn, `COc1ccccc1NC(=O)Nc1ccc2nc(Oc3ccc(F)cc3C(C)O)c(Cc3ccccc3)cc2c1` (stereo not given) showed an inhibition at 6.25 µg/mL in data set [1] of 8%.
Same read-out and setting: the same measure for `COc1ccccc1NC(=S)Nc1ccc2nc(Oc3ccc(F)cc3C(C)O)c(Cc3ccccc3)cc2c1` (stereo not given): 14%; for `O=[N+]([O-])c1ccc2nc(Oc3ccc(F)cc3C(O)Cn3ccc(-c4cccc(Cl)c4)n3)c(Cc3ccccc3)cc2c1` (stereo not given): 0%; for `CC(c1cc(F)ccc1Oc1nc2ccc(-n3cc(-c4ccccc4)nn3)cc2cc1Cc1ccccc1)N1CCCCC1` (stereo not given): 81%.
In data set [1], `COc1cccc(NC(=O)Nc2ccc3nc(Oc4ccc(F)cc4C(C)O)c(Cc4ccccc4)cc3c2)c1` (stereo not given) returned an inhibition at 6.25 µg/mL of 94%. The same molecule registered a minimal inhibitory concentration (MIC) in data set [2] of 3.12 µg/mL (≈ 5.81 µM). For the same molecule, in data set [3], the viability at 24 h, 10 ug/100 ul amounted to 79%. Besides, in data set [4], the viability at 72 h, 10 ug/100 ul worked out at 63%. The viability at 24 h, 1 ug/100 ul in data set [5] was determined as 100%. Further, the viability at 72 h, 1 ug/100 ul in data set [6] was 100%.
In data set [1], `COc1cccc(NC(=S)Nc2ccc3nc(Oc4ccc(F)cc4C(C)O)c(Cc4ccccc4)cc3c2)c1` (stereo not given) yielded an inhibition at 6.25 µg/mL of 22%.
Regarding `O=[N+]([O-])c1ccc2nc(Oc3ccc(F)cc3C(O)Cn3ccc(-c4ccc(C(F)(F)F)cc4)n3)c(Cc3ccccc3)cc2c1` (stereo not given), the inhibition at 6.25 µg/mL in data set [1] amounted to 6%.
`CC(c1cc(F)ccc1Oc1nc2ccc(-n3cc(-c4ccccc4)nn3)cc2cc1Cc1ccccc1)n1ccnc1` (stereo not given) showed an inhibition at 6.25 µg/mL in data set [1] of 96%. In data set [2], the minimal inhibitory concentration (MIC) amounted to 3.12 µg/mL (≈ 5.51 µM). Besides, the viability at 24 h, 10 ug/100 ul in data set [3] stood at 88%. The viability at 72 h, 10 ug/100 ul in data set [4] stood at 58%. Moreover, in data set [5], the viability at 24 h, 1 ug/100 ul is 100%. For the same molecule, the viability at 72 h, 1 ug/100 ul in data set [6] was determined as 61%.

Values taken from ChEMBL document CHEMBL1152944, “Design, synthesis and biological evaluation of novel triazole, urea and thiourea derivatives of quinoline against Mycobacterium tuberculosis” (Bioorg Med Chem, 2009).
